Results: ChEMBL document CHEMBL5303573, “Mapping human microbiome drug metabolism by gut bacteria and their genes” (Nature, 2019)

Key:
[1] = The drug is tested on Bifidobacterium ruminantium strain: fecal isolate for biotransformation. The drug concentrations were measured before and after a 12-h incubation by liquid-chromatography-coupled mass spectrometry (LC–MS); conditions: 2 µM
[2] = The drug is tested on Providencia stuartii strain: ATCC25827 for biotransformation. The drug concentrations were measured before and after a 12-h incubation by liquid-chromatography-coupled mass spectrometry (LC–MS); conditions: 2 µM
[3] = The drug is tested on Coprococcus comes strain: ATCC27758 for biotransformation. The drug concentrations were measured before and after a 12-h incubation by liquid-chromatography-coupled mass spectrometry (LC–MS); format: ADME; set-up: dose 2 uM, timepoint 0 vs 12 hours; conditions: 2 µM
[4] = parabacteroides distasonis, 12 h, 2 µM
Description: The drug is tested on Parabacteroides distasonis strain: ATCC8503 for biotransformation. The drug concentrations were measured before and after a 12-h incubation by liquid-chromatography-coupled mass spectrometry (LC–MS)

[5] = The drug is tested on Clostridium asparagiforme strain: DSM15981 for biotransformation. The drug concentrations were measured before and after a 12-h incubation by liquid-chromatography-coupled mass spectrometry (LC–MS); format: ADME; set-up: dose 2 uM, timepoint 0 vs 12 hours; conditions: enterocloster asparagiformis, 2 µM
[6] = The drug is tested on Bacteroides uniformis strain: ATCC8492 for biotransformation. The drug concentrations were measured before and after a 12-h incubation by liquid-chromatography-coupled mass spectrometry (LC–MS); conditions: 2 µM
[7] = The drug is tested on Providencia rettgeri strain: DSM1131 for biotransformation. The drug concentrations were measured before and after a 12-h incubation by liquid-chromatography-coupled mass spectrometry (LC–MS); format: ADME; set-up: dose 2 uM, timepoint 0 vs 12 hours; conditions: 2 µM
[8] = akkermansia muciniphila, 12 h, 2 µM
Description: The drug is tested on Akkermansia muciniphila strain: ATCC BAA-835 for biotransformation. The drug concentrations were measured before and after a 12-h incubation by liquid-chromatography-coupled mass spectrometry (LC–MS)

[9] = roseburia intestinalis, 12 h, 2 µM
Description: The drug is tested on Roseburia intestinalis strain: L1-82 for biotransformation. The drug concentrations were measured before and after a 12-h incubation by liquid-chromatography-coupled mass spectrometry (LC–MS)

[10] = bacteroides intestinalis, 12 h, 2 µM
Description: The drug is tested on Bacteroides intestinalis strain: DSM17393 for biotransformation. The drug concentrations were measured before and after a 12-h incubation by liquid-chromatography-coupled mass spectrometry (LC–MS)

[11] = The drug is tested on Eubacterium hallii strain: DSM3353 for biotransformation. The drug concentrations were measured before and after a 12-h incubation by liquid-chromatography-coupled mass spectrometry (LC–MS); conditions: anaerobutyricum hallii, 2 µM
[12] = The drug is tested on Bifidobacterium longum subsp. Infantis strain: CCUG52486 for biotransformation. The drug concentrations were measured before and after a 12-h incubation by liquid-chromatography-coupled mass spectrometry (LC–MS); conditions: 2 µM
[13] = bifidobacterium adolescentis, 12 h, 2 µM
Description: The drug is tested on Bifidobacterium adolescentis strain: ATCC 15703 for biotransformation. The drug concentrations were measured before and after a 12-h incubation by liquid-chromatography-coupled mass spectrometry (LC–MS)

[14] = The drug is tested on Bacteroides pectinophilus strain: ATCC43243 for biotransformation. The drug concentrations were measured before and after a 12-h incubation by liquid-chromatography-coupled mass spectrometry (LC–MS); conditions: 2 µM
[15] = The drug is tested on Anaerotruncus colihominis strain: DSM17241 for biotransformation. The drug concentrations were measured before and after a 12-h incubation by liquid-chromatography-coupled mass spectrometry (LC–MS); conditions: 2 µM
[16] = bacteroides eggerthii, 12 h, 2 µM
Description: The drug is tested on Bacteroides eggerthii strain: DSM20697 for biotransformation. The drug concentrations were measured before and after a 12-h incubation by liquid-chromatography-coupled mass spectrometry (LC–MS)

[17] = enterocloster bolteae, 12 h, 2 µM
Description: The drug is tested on Clostridium bolteae strain: ATCCBAA-613 for biotransformation. The drug concentrations were measured before and after a 12-h incubation by liquid-chromatography-coupled mass spectrometry (LC–MS)

[18] = The drug is tested on Eubacterium rectale strain: ATCC33656 for biotransformation. The drug concentrations were measured before and after a 12-h incubation by liquid-chromatography-coupled mass spectrometry (LC–MS); conditions: agathobacter rectalis, 2 µM
[19] = segatella copri, 12 h, 2 µM
Description: The drug is tested on Prevotella copri strain: DSM18205 for biotransformation. The drug concentrations were measured before and after a 12-h incubation by liquid-chromatography-coupled mass spectrometry (LC–MS)

[20] = The drug is tested on Clostridium sp. strain: fecal isolate for biotransformation. The drug concentrations were measured before and after a 12-h incubation by liquid-chromatography-coupled mass spectrometry (LC–MS); conditions: 2 µM

Row | SMILES | Bacterial Biotransformation [1] | Bacterial Biotransformation [2] | Bacterial Biotransformation [3] | Bacterial Biotransformation [4] | Bacterial Biotransformation [5] | Bacterial Biotransformation [6] | Bacterial Biotransformation [7] | Bacterial Biotransformation [8] | Bacterial Biotransformation [9] | Bacterial Biotransformation [10] | Bacterial Biotransformation [11] | Bacterial Biotransformation [12] | Bacterial Biotransformation [13] | Bacterial Biotransformation [14] | Bacterial Biotransformation [15] | Bacterial Biotransformation [16] | Bacterial Biotransformation [17] | Bacterial Biotransformation [18] | Bacterial Biotransformation [19] | Bacterial Biotransformation [20]
1 | CCCc1nc2c(C)cc(-c3nc4ccccc4n3C)cc2n1Cc1ccc(-c2ccccc2C(=O)O)cc1 | Compound NOT metabolized | Compound NOT metabolized | Compound NOT metabolized | Compound metabolized | Compound NOT metabolized | Compound metabolized | Compound NOT metabolized | Compound NOT metabolized | Compound NOT metabolized | Compound NOT metabolized | Compound NOT metabolized | Compound NOT metabolized | Compound NOT metabolized |  |  |  |  |  |  | 
2 | N=C(N)NC(=O)Cc1c(Cl)cccc1Cl [GUANFACINE] | Compound NOT metabolized | Compound NOT metabolized | Compound NOT metabolized | Compound NOT metabolized | Compound NOT metabolized | Compound NOT metabolized | Compound NOT metabolized |  | Compound NOT metabolized | Compound NOT metabolized | Compound NOT metabolized | Compound NOT metabolized | Compound NOT metabolized | Compound NOT metabolized | Compound NOT metabolized | Compound NOT metabolized | Compound NOT metabolized |  |  | 
3 | CCN(CC)CCCC(C)Nc1c2ccc(Cl)cc2nc2ccc(OC)cc12 (configuration not stated) [QUINACRINE] |  | Compound NOT metabolized | Compound NOT metabolized | Compound NOT metabolized | Compound NOT metabolized | Compound NOT metabolized |  | Compound NOT metabolized | Compound NOT metabolized | Compound NOT metabolized | Compound NOT metabolized | Compound NOT metabolized | Compound NOT metabolized | Compound NOT metabolized | Compound NOT metabolized | Compound NOT metabolized | Compound NOT metabolized |  | Compound NOT metabolized | 
4 | CN[C@H]1CC[C@@H](c2ccc(Cl)c(Cl)c2)c2ccccc21 [SERTRALINE] | Compound NOT metabolized |  |  | Compound NOT metabolized | Compound NOT metabolized | Compound NOT metabolized | Compound NOT metabolized |  |  | Compound NOT metabolized | Compound NOT metabolized | Compound NOT metabolized | Compound NOT metabolized | Compound NOT metabolized | Compound NOT metabolized | Compound NOT metabolized |  | Compound NOT metabolized | Compound NOT metabolized | 
5 | CC(C)(C)NC[C@H](O)COc1nsnc1N1CCOCC1.O=C(O)/C=C\C(=O)O [TIMOLOL MALEATE] | Compound NOT metabolized | Compound NOT metabolized | Compound NOT metabolized | Compound NOT metabolized |  | Compound NOT metabolized | Compound NOT metabolized | Compound NOT metabolized | Compound NOT metabolized | Compound NOT metabolized | Compound NOT metabolized | Compound NOT metabolized | Compound NOT metabolized | Compound NOT metabolized | Compound NOT metabolized | Compound NOT metabolized | Compound NOT metabolized | Compound NOT metabolized | Compound NOT metabolized | Compound NOT metabolized

Continued, in another order:

Row | Bacterial Biotransformation [1] | Bacterial Biotransformation [2] | Bacterial Biotransformation [3] | Bacterial Biotransformation [4] | Bacterial Biotransformation [5] | Bacterial Biotransformation [6] | Bacterial Biotransformation [7] | Bacterial Biotransformation [8] | Bacterial Biotransformation [9] | Bacterial Biotransformation [10] | Bacterial Biotransformation [11] | Bacterial Biotransformation [12] | Bacterial Biotransformation [13] | Bacterial Biotransformation [14] | Bacterial Biotransformation [15] | Bacterial Biotransformation [16] | Bacterial Biotransformation [17] | Bacterial Biotransformation [18] | Bacterial Biotransformation [19] | SMILES | Bacterial Biotransformation [20]
6 |  | Compound NOT metabolized | Compound NOT metabolized |  | Compound NOT metabolized | Compound NOT metabolized |  | Compound NOT metabolized |  | Compound NOT metabolized | Compound NOT metabolized | Compound NOT metabolized | Compound NOT metabolized | Compound NOT metabolized | Compound NOT metabolized | Compound NOT metabolized | Compound NOT metabolized | Compound NOT metabolized | Compound NOT metabolized | CC(CN1c2ccccc2Sc2ccccc21)N(C)C (configuration not stated) [PROMETHAZINE] | 
7 |  | Compound NOT metabolized | Compound NOT metabolized |  | Compound NOT metabolized | Compound NOT metabolized | Compound NOT metabolized | Compound NOT metabolized | Compound NOT metabolized | Compound NOT metabolized | Compound NOT metabolized | Compound NOT metabolized | Compound NOT metabolized | Compound NOT metabolized | Compound NOT metabolized | Compound NOT metabolized | Compound NOT metabolized |  | Compound NOT metabolized | CCCN(CCC)CCc1cccc2c1CC(=O)N2 [ROPINIROLE] | 
8 | Compound NOT metabolized | Compound NOT metabolized | Compound NOT metabolized | Compound NOT metabolized | Compound NOT metabolized | Compound metabolized | Compound NOT metabolized | Compound NOT metabolized | Compound NOT metabolized |  | Compound NOT metabolized | Compound NOT metabolized | Compound NOT metabolized | Compound NOT metabolized | Compound NOT metabolized | Compound NOT metabolized | Compound NOT metabolized |  | Compound NOT metabolized | CC(C)NCC(O)c1ccc(NS(C)(=O)=O)cc1 (configuration not stated) [SOTALOL] | 
9 |  | Compound NOT metabolized | Compound metabolized | Compound NOT metabolized | Compound NOT metabolized |  | Compound NOT metabolized | Compound NOT metabolized | Compound metabolized | Compound NOT metabolized | Compound NOT metabolized | Compound NOT metabolized | Compound NOT metabolized | Compound NOT metabolized |  | Compound metabolized | Compound NOT metabolized | Compound NOT metabolized | Compound NOT metabolized | Cc1cn([C@H]2C[C@H](N=[N+]=[N-])[C@@H](CO)O2)c(=O)[nH]c1=O [ZIDOVUDINE] | 
